Experimental data: US20090155903A1, “PHARMACEUTICAL COMPOSITION AND METHOD” (Myriad Genetics, Incorporated, priority 2004, published 2009)

Experiments:
COX2 = target: T1, COX2 (Homo sapiens, UniProt P35354); assay: COX inhibitor screening kit (Cayman Chemical), COX2; assay type: biochemical; details: 100 μM compound
T1 construct: purchased Cayman Chemical, Ann Arbor, Mich; 560131
T1 sequence (P35354 18-604): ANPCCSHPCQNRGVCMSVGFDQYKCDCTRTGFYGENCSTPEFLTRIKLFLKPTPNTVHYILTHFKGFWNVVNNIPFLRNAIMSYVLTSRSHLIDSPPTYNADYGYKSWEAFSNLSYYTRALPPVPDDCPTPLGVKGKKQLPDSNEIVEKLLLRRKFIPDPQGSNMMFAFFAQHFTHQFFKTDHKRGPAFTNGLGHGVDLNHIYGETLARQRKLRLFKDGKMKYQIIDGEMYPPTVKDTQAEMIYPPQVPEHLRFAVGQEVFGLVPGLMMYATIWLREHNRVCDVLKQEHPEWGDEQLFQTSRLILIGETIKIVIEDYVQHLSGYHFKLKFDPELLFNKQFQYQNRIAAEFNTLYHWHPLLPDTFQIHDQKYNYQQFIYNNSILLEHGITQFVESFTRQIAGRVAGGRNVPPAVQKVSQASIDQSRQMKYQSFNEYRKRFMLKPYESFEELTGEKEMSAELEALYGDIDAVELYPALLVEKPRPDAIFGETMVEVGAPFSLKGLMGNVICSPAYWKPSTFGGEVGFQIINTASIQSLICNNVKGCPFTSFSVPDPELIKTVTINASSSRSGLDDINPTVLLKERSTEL
Method: (§1) The invention is based on the fact that the inventors have discovered that compounds of the formulae above lower Aβ42 Levels in in vitro APP processing assays. Furthermore, the compounds, in general, have negligible levels of COX inhibition and therefore are thought to essentially be devoid of the deleterious side-effects associated with COX inhibition. […] Preferred compounds of the formulae for use in the invention are those that have little or negligible COX1 and/or COX2 inhibition at 1 μM, more preferred are those that little or negligible COX1 and/or COX2 inhibition at 10 μM, and more preferred are those that little or negligible COX1 and/or COX2 inhibition at 100 μM compound. COX1 and COX2 inhibition can be determined with a COX inhibitor screening kit from e.g., Cayman Chemical, Ann Arbor, Mich. (Cat. #560131).
(§2) The invention is related to the inventors' discovery that compounds of Formula I-Va lower Aβ42 levels in APP processing assays. Furthermore, compounds of Formula I-Va, in general, have negligible levels of COX inhibition and therefore are thought to essentially be devoid of the deleterious side-effects associated with COX inhibition. […] Preferred compounds of Formula I-Va for use in the invention are those that have little or negligible COX1 and/or COX2 inhibition at 1 μM, more preferred are those that have little or negligible COX1 and/or COX2 inhibition at 10 μM, and more preferred are those that have little or negligible COX1 and/or COX2 inhibition at 100 μM compound. COX1 and COX2 inhibition can be determined with a COX inhibitor screening kit from e.g., Cayman Chemical, Ann Arbor, Mich. (Cat. #560131). […] Representative compounds found to lower Aβ42 levels using the previously described assay by at least 50% of DMSO control at concentrations ranging from 30-80 μM include compounds 1, 11, 21, 22, 24, 25, 26, 38, 43, 64, 67, 98, 100, and 102. Particularly preferred compounds of Formula I-Va for use in the methods and embodiments of the invention include those in Tables 2-7 below.

COX1 = target: T2, COX1 (Ovis aries, UniProt P05979); assay: COX inhibitor screening kit (Cayman Chemical), COX1; assay type: biochemical; details: 100 μM compound
T2 construct: purchased Cayman Chemical, Ann Arbor, Mich; 560131
T2 sequence (P05979 25-600): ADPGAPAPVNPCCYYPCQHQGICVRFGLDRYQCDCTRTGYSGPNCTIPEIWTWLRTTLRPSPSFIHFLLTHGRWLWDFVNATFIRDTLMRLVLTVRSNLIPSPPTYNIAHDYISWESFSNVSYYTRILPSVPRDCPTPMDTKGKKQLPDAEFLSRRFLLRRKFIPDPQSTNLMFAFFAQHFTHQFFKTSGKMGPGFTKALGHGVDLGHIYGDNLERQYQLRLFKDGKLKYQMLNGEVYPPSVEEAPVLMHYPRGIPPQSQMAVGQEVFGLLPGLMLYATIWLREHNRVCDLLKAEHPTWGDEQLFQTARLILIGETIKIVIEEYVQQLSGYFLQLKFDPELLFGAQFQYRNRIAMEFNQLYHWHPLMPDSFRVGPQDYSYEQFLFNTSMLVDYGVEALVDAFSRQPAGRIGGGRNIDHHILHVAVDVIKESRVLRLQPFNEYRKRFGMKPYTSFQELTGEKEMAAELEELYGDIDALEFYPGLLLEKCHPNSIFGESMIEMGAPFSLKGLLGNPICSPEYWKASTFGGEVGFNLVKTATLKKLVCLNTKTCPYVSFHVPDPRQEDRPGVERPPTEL
Method: as §1, §2

[1] = clinical trials; rofecoxib at 25 mg daily; cited from earlier work
[2] = patients with mild cognitive impairment; 4.5% for placebo; cited from earlier work

SMILES	inhibition of COX2 (COX2)	inhibition of COX1 (COX1)	efficacy for treating AD [1]	patients who developed AD [2] [%]
Cc1c(CC(=O)O)c2ccccc2n1C(=O)c1ccc(OC(F)(F)F)cc1 [Compound 10, 1-(4-trifluoromethoxybenzoyl)-2-methylindole-3-acetic acid]	not significantly inhibit	not significantly inhibit		
Cc1c(CC(=O)O)c2ccccc2n1Cc1ccc(Br)cc1 [Compound 19, 1-(4-bromobenzyl)-2-methylindole-3-acetic acid]	not significantly inhibit	not significantly inhibit		
COc1ccc(-c2cccc(CC(=O)O)c2)cc1 [Compound 72, (4′-Methoxy-biphenyl-3-yl)-acetic acid]	not significantly inhibit	not significantly inhibit		
O=C(O)c1cc2cc(OCc3ccccc3)ccc2n1Cc1ccc(C(F)(F)F)cc1 [Compound 97, 5-benzyloxy-1-(4-trifluoromethylbenzyl)-1H-indole-2-carboxylic acid]	not significantly inhibit	not significantly inhibit		
COc1ccc2cc([C@H](C)C(=O)O)ccc2c1 [Naproxen]			failed to show efficacy	
CS(=O)(=O)c1ccc(C2=C(c3ccccc3)C(=O)OC2)cc1 [rofecoxib]			failed to show efficacy	6.4

Further lines, with some results ahead:

inhibition of COX2 (COX2)	inhibition of COX1 (COX1)	SMILES	efficacy for treating AD [1]	patients who developed AD [2] [%]
not significantly inhibit	not significantly inhibit	O=C(O)c1cc([N+](=O)[O-])ccc1NCc1ccc(Cl)c(Cl)c1 [Compound 40, 2-(3,4-dichlorobenzylamino)-5-nitrobenzoic acid]		
not significantly inhibit	not significantly inhibit	O=C(O)c1cc([N+](=O)[O-])ccc1NCc1cccc(Cl)c1 [Compound 43, 2-(3-chlorobenzylamino)-5-nitrobenzoic acid]		
